System: 454973-116-R2-J3-PDC spheroids, viability, % test/control
Test: Anticancer human tumor 454973-116-R2-J3-PDC patient-derived pancreatic carcinoma cell line growth inhibition [GQUAD]
Settings: spheroids with HUVEC and MSC; for IC50: curve of first compound; for viability, T/C: stronger effect = lower value
Source text: DNA G-quadruplex Stabilizer Agents in Combinations in Complex Spheroids
A high-throughput screen of multi-cell type tumor spheroids was designed to identify active combinations of DNA G-quadruplex stabilizer agents and targeted small molecules. Complex spheroids include a stromal component modeled by human endothelial cells (HUVEC) and fibroblasts modeled by human mesenchymal stem cells (MSCs). The concentration ranges selected for each drug and investigational agent were based upon clinically achievable concentrations if the clinical Cmax of the agent was known.
Compounds. The drugs and investigational agents: pidnarulex (CX-5461; NSC782164), APTO-253 (NSC789042), BRACO-19 (NSC847499), peposertib (NSC802822), ceralasertib (NSC780249), elimusertib (NSC800525), camonsertib (NSC841442), AZD-1390 (NSC803789), olaparib (NSC753686), talazoparib (NSC767125), ART-558 (NSC835418), sotorasib (NSC818433), MRTX-1133 (NSC836407), SN-38 (NSC673596), topotecan (NSC609699), etoposide (NSC141540), doxorubicin (NSC123127), gemcitabine (NSC613327), 5-fluorouracil (NSC19893), paclitaxel (NSC125973), vemurafenib (NSC761431), panobinostat (NSC761190), R-306465 (JNJ-16241199; NSC773264), adavosertib (NSC754352), TP-3654 (NSC805149), carboplatin (NSC241240), KSQ-4279 (NSC840948), and staurosporine (NSC755774) were obtained from the National Cancer Institute (NCI) Developmental Therapeutics Program Chemical Repository (34). The FDA-approved anticancer drug set is available from the NCI Developmental Therapeutics Program. […] The stock solutions were prepared in dimethyl sulfoxide (DMSO, Sigma-Aldrich, St. Louis, MO, cat. D2650) at 800-fold the tested concentration and stored at -70 degrees C prior to their use. All drugs and investigational agents were tested over a range starting from a high concentration at or near the clinical Cmax and decreasing in half-log increments. If the clinical Cmax for an agent had not been determined, the highest concentration tested was 10 microM.
2.3 Cell Culture. All cells were maintained in an incubator at 37 degrees C and 5% CO2 with 95% humidity. The PDC lines were cultured according to standard operating procedures established by the NCI PDMR. All PDCs were thawed and cultured in Matrigel-coated flasks prepared with a working solution of 1X Ham's F-12 nutrient mix, without supplementation (Invitrogen, cat. 11765054), 100 U/mL penicillin-streptomycin (Invitrogen, cat. 15140122), and 2.5% Matrigel (Corning Inc., cat. 354248) for the first three passages. The 857933-349-R-J2-PDC line was cultured in 6C/Colon 1B media, which includes advanced DMEM/F-12 (Thermo Fisher Scientific, cat. 12634028), 10 mM HEPES (Thermo Fisher Scientific, cat. 15630080), 1X GlutaMAX supplement (Thermo Fisher Scientific, cat. 35050061), 0.1 mg/mL primocin (InvivoGen, cat. ant-pm-2), 10% defined fetal bovine serum, heat inactivated (HyClone Laboratories Inc., cat. SH30070.03HI), 50% L-WRN conditioned media (ATCC, cat. CRL-3276), 1.25 mM N-Acetyl-L-cysteine (Sigma-Aldrich, cat. A9165), 10 mM nicotinamide (Sigma-Aldrich, cat. N0636), 1X B-27 supplement (Thermo Fisher Scientific, cat. 17504044), 1X N-2 supplement (Thermo Fisher Scientific, cat. 17502048), 10 microM Y-27632 dihydrochloride (Tocris Bioscience, cat. 1254), and 50 ng/mL human EGF recombinant protein (Thermo Fisher Scientific, cat. PHG0311). The 485176-168-R4-J1-PDC line was cultured in Panc media, which includes all 6C/Colon 1B media components plus 100 ng/mL human FGF-10 (Thermo Fisher Scientific, cat. 100-26), 500 nM SB-431542 (Selleckchem, cat. S1067), and gastrin (Tocris, cat. 3006).
[…]

[1] = second compound 0.0316 µM, first compound 0.0316 µM
[2] = second compound 0.0316 µM, first compound 0.1 µM
[3] = second compound 0.0316 µM, first compound 0.316 µM
[4] = second compound 0.0316 µM, first compound 1 µM
[5] = second compound 0.0316 µM, first compound 3.16 µM
[6] = second compound 0.0316 µM, first compound 10 µM
[7] = second compound 0.1 µM, first compound 0.0316 µM
[8] = second compound 0.1 µM, first compound 0.1 µM
[9] = second compound 0.1 µM, first compound 0.316 µM
[10] = second compound 0.1 µM, first compound 1 µM
[11] = second compound 0.1 µM, first compound 3.16 µM
[12] = second compound 0.1 µM, first compound 10 µM
[13] = second compound 0.316 µM, first compound 0.0316 µM
[14] = second compound 0.316 µM, first compound 0.1 µM
[15] = second compound 0.316 µM, first compound 0.316 µM
[16] = second compound 0.316 µM, first compound 1 µM
[17] = second compound 0.316 µM, first compound 3.16 µM
[18] = second compound 0.316 µM, first compound 10 µM
[19] = second compound 1 µM, first compound 0.0316 µM
[20] = second compound 1 µM, first compound 0.1 µM
[21] = second compound 1 µM, first compound 0.316 µM
[22] = second compound 1 µM, first compound 1 µM
[23] = second compound 1 µM, first compound 3.16 µM
[24] = second compound 1 µM, first compound 10 µM
[25] = second compound 3.16 µM, first compound 0.0316 µM
[26] = second compound 3.16 µM, first compound 0.1 µM
[27] = second compound 3.16 µM, first compound 0.316 µM
[28] = second compound 3.16 µM, first compound 1 µM
[29] = second compound 3.16 µM, first compound 3.16 µM
[30] = second compound 3.16 µM, first compound 10 µM
[31] = second compound 10 µM, first compound 0.0316 µM
[32] = second compound 10 µM, first compound 0.1 µM
[33] = second compound 10 µM, first compound 0.316 µM
[34] = second compound 10 µM, first compound 1 µM
[35] = second compound 10 µM, first compound 3.16 µM
[36] = second compound 10 µM, first compound 10 µM
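Note: spheroids exposed to compounds for seven days.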

CC1COCCN1c1cc(C2(S(C)(=N)=O)CC2)nc(-c2ccnc3[nH]ccc23)n1 (centres undefined) + CN(C)c1ccc(Nc2c3ccc(NC(=O)CCN4CCCC4)cc3nc3cc(NC(=O)CCN4CCCC4)ccc23)cc1
IC50 (second compound 0.0316 µM): 5.38 µM | IC50 (second compound 0.1 µM): 5.35 µM | IC50 (second compound 0.316 µM): 5.98 µM | IC50 (second compound 1 µM): 5.14 µM | IC50 (second compound 3.16 µM): 6.07 µM | IC50 (second compound 10 µM): 5.84 µM | viability, T/C [1]: 110% | viability, T/C [2]: 105% | viability, T/C [3]: 105% | viability, T/C [4]: 102% | viability, T/C [5]: 64.1% | viability, T/C [6]: 33.5% | viability, T/C [7]: 109% | viability, T/C [8]: 99.4% | viability, T/C [9]: 115% | viability, T/C [10]: 108% | viability, T/C [11]: 62.9% | viability, T/C [12]: 34.5% | viability, T/C [13]: 104% | viability, T/C [14]: 103% | viability, T/C [15]: 99.8% | viability, T/C [16]: 100% | viability, T/C [17]: 71.1% | viability, T/C [18]: 33% | viability, T/C [19]: 94.4% | viability, T/C [20]: 95.1% | viability, T/C [21]: 110% | viability, T/C [22]: 77.2% | viability, T/C [23]: 63.9% | viability, T/C [24]: 34.3% | viability, T/C [25]: 89% | viability, T/C [26]: 90.8% | viability, T/C [27]: 90.1% | viability, T/C [28]: 82.8% | viability, T/C [29]: 66.2% | viability, T/C [30]: 37.7% | viability, T/C [31]: 80.5% | viability, T/C [32]: 82.1% | viability, T/C [33]: 83.7% | viability, T/C [34]: 78.4% | viability, T/C [35]: 59.8% | viability, T/C [36]: 41.5%

COc1ccc([C@@H](O)c2cc(-c3ncnc4cc(N5CCOCC5)ccc34)c(F)cc2Cl)nn1 + CN(C)c1ccc(Nc2c3ccc(NC(=O)CCN4CCCC4)cc3nc3cc(NC(=O)CCN4CCCC4)ccc23)cc1
IC50 (second compound 0.0316 µM): > 10 µM | IC50 (second compound 0.1 µM): > 10 µM | IC50 (second compound 0.316 µM): 9.2 µM | IC50 (second compound 1 µM): 6.56 µM | IC50 (second compound 3.16 µM): 5.39 µM | IC50 (second compound 10 µM): 2.89 µM | viability, T/C [1]: 101% | viability, T/C [2]: 94.6% | viability, T/C [3]: 96.3% | viability, T/C [4]: 82.8% | viability, T/C [5]: 69.1% | viability, T/C [6]: 55.7% | viability, T/C [7]: 112% | viability, T/C [8]: 98.5% | viability, T/C [9]: 101% | viability, T/C [10]: 82.9% | viability, T/C [11]: 65.5% | viability, T/C [12]: 51.5% | viability, T/C [13]: 93.3% | viability, T/C [14]: 91.5% | viability, T/C [15]: 89.1% | viability, T/C [16]: 76.1% | viability, T/C [17]: 66.5% | viability, T/C [18]: 48.5% | viability, T/C [19]: 89.5% | viability, T/C [20]: 86.3% | viability, T/C [21]: 88.2% | viability, T/C [22]: 76.6% | viability, T/C [23]: 59.4% | viability, T/C [24]: 44.7% | viability, T/C [25]: 86.1% | viability, T/C [26]: 91.2% | viability, T/C [27]: 85.2% | viability, T/C [28]: 68.9% | viability, T/C [29]: 59.9% | viability, T/C [30]: 40.7% | viability, T/C [31]: 76.6% | viability, T/C [32]: 68.2% | viability, T/C [33]: 81.9% | viability, T/C [34]: 61.4% | viability, T/C [35]: 50% | viability, T/C [36]: 27.6%

Source: PubChem BioAssay AID2060508 (Molecular Pharmacology Branch, DTP, NCI, 2025)
